Data: patent publication US5039811A, “Preparation of N-(pyridinyl)-1H-indol-1-amines” (Hoechst-Roussel Pharmaceuticals Inc., priority 1990, dated 1991)
Where a name gives a salt, the structure may show the parent alone. Read-outs that look alike come from different tables or passages of the source.

Columns and labels:
Format in all cases: in vivo
[1] = tested on: Tetrabenazine-Induced Ptosis; experiment: Prevention of Tetrabenazine-Induced Ptosis in Mice; settings: Mus musculus, read-out: Ed50 (prevention of tetrabenazine-induced ptosis)
Experimental: The antidepressant activities were evaluated in this invention on the basis of prevention of Tetrabenazine-induced ptosis in mice. The test method and results are described below.
Tetrabenazine (TBZ) induces behavioral depression with concomitant ptosis in mice similar to reserpine. Antidepressant compounds, both monoamineoxidase inhibitors and tricyclics, are known to prevent or antagonize these effects and the degree of antagonism correlates with clinical efficacy. The prevention of TBZ-induced ptosis in mice is used as a preliminary screen for possible antidepressant activity. The method used in this invention is as follows:
Male mice weighing 20 to 30 grams are used in test groups of five subjects. All compounds are dissolved or suspended with a suitable surfactant in distilled water and administered in volumes of 10 ml/kg of body weight. TBZ solution is made from the methanesulfonate salt and the concentration is adjusted to enable administration of 60 mg/kg of base by intraperitoneal (i.p.) injection.
The pretreatment time is measured from the time of dosing to observation. Therefore, when a 30-minute pretreat is utilized, drug and TBZ are given simultaneously. A control group received solvent and TBZ at intervals identical to drug group. For a primary screen, the drug is administered i.p. and a group size of five is utilized. Eight animals/group are used for a dose range.
The total score for each group of five in a primary screen will, therefore, be from 0 to 20 and these scores are used as indications of drug activity.
The vehicle control group score is used as a determinant of the validity of each test. […] The calculation of percent inhibition of ptosis is: [formula]

[2] = tested on: Scopolamine Induced Memory Deficit; experiment: Dark Avoidance Assay (reversal of scopolamine induced memory deficit); settings: s.c., mice
Experimental: In this assay mice are tested for their ability to remember an unpleasant stimulus for a period of 24 hours. A mouse is placed in a chamber that contains a dark compartment; a strong incandescent light drives it to the dark compartment, where an electric shock is administered through metal plates on the floor. The animal is removed from the testing apparatus and tested again, 24 hours later, for the ability to remember the electric shock.
If scopolamine, an anticholinergic that is known to cause memory impairment, is administered before an animal's initial exposure to the test chamber, the animal re-enters the dark compartment shortly after being placed in the test chamber 24 hours later.

[3] = tested on: sensitivity of mice to pressure stress (artery clip on tail); experiment: Modified Haffner's Analgesia (tail clip pressure stress); settings: Mus musculus, sc, read-out: ANALGESIC ACTIVITY ED50, Modified Haffner's Analgesia
Source text: (§1) Compounds I of the present invention are also useful as analgesic agents due to their ability to alleviate pain in mammals. […] Exptl. Biol. Med., 95, 729 (1957)] and in modified Haffner's analgesia.
The latter assay is used to evaluate analgesic activity by measuring drug-induced changes in the sensitivity of mice to pressure stress by placing an artery clip (21/2 inches long) on their tail. The procedure used is a modification of the test developed by Haffner, Dtsch. Med. Wschr. 55, 731 (1929), and it is described below.
Male mice (Charles River, DC-1), from 18-30 grams are used for the test. An artery clip is applied to the root of the tail of a mouse (approximately 1/2 inch from the body) to induce pain. The animals quickly respond to this noxious stimuli by biting the clip or the location of the clip. This reaction time, the interval between stimulus onset and response, is recorded in 1/10 second increments by a stop watch.
For a time response, the screening dose (25 mg/kg) is administered subcutaneously (10 ml/kg) to the animal receiving food and water ad libitum before testing. Animals receiving the compound orally are fasted 18-24 hours before drug administration. Drug to be tested is prepared with distilled water and if insoluble, one drop of a surfactant is added.
Twenty-eight animals (seven/group) are administered the drug 15, 30, 45 and 60 minutes prior to testing.
The cut-off time (CO) is determined by taking the Xav +3σ of the combined response latencies of the control mice in all time periods where Xav is the average of X and σ is the standard deviation.
Any reaction time, in subsequent drug tests, which is greater than the CO (for the same time period) therefore exceeds 99% of a normal Gaussian distribution and is called "positive response" indicative of analgesic activity. A time response indicates the period of greatest analgesic effect after dosing. The ED50 is determined at the peak time of drug activity. A minimum of three dose groups are used. ED50 's are calculated using computer analysis.

[4] = tested on: 2-phenyl-1,4-benzoquinone-induced writhing; experiment: 2-phenyl-1,4-benzoquinone-induced writhing (PQW) test in mice; settings: Mus musculus, sc, read-out: ANALGESIC ACTIVITY ED50, POW
Source text: as §1

[5] = po, male mice, TBZ 60 mg/kg i.p.
[6] = male mice, at peak time of drug activity
[7] = ip, male mice, TBZ 60 mg/kg i.p.

Compound | ED50 [1, 5] | ED50 [3, 6] | ED50 ([4]; mice) | further results
CNCCCN1c2ccccc2CCc2ccccc21 [Desipramine, reference compound] |  |  |  | ED50 ([1]; po): 2.3 mg/kg
O=C(O)/C=C\C(=O)O.c1ccc2c(c1)ccn2Nc1ccncc1 [Example 1, N-(4-Pyridinyl)-1H-indol-1-amine maleate] | 3.3 mg/kg | 5.7 mg/kg | 0.86 mg/kg | % of Animals With Scopolamine Induced Memory Deficit Reversed ([2]; 0.31 mg/kg body weight): 33%
CN(c1ccncc1)n1ccc2ccccc21.O=C(O)/C=C\C(=O)O [Example 2, N-Methyl-N-(4-pyridinyl)-1H-indol-1-amine maleate] | 3.3 mg/kg | 16.3 mg/kg | 3.2 mg/kg | % of Animals With Scopolamine Induced Memory Deficit Reversed ([2]; 0.04 mg/kg body weight): 53%
CCN(c1ccncc1)n1ccc2ccccc21.O=C(O)/C=C\C(=O)O [Example 3, N-Ethyl-N-(4-pyridinyl)-1H-indol-1-amine maleate] | 5.6 mg/kg |  |  | % of Animals With Scopolamine Induced Memory Deficit Reversed ([2]; 0.63 mg/kg body weight): 33%
CCCN(c1ccncc1)n1ccc2ccccc21.O=C(O)/C=C\C(=O)O [Example 4, N-Propyl-N-(4-pyridinyl)-1H-indol-1-amine maleate] | 5.1 mg/kg | 31 mg/kg | 5.1 mg/kg | % of Animals With Scopolamine Induced Memory Deficit Reversed ([2]; 0.08 mg/kg body weight): 27%
CCCN(c1ccncc1)n1ccc2cc(OC)ccc21.O=C(O)/C=C\C(=O)O [Example 5, 5-Methoxy-N-propyl-N-(4-pyridinyl)-1H-indol-1-amine maleate] | 29.8 mg/kg |  |  | 
CN(c1ccncc1)n1cc(C=O)c2ccccc21 [Example 6, N-Methyl-N-(4-pyridinyl)-1H-indol-1-amine-3-carboxaldehyde maleate] | 9.7 mg/kg |  |  | 
CCN(c1ccncc1)n1cc(C=O)c2ccccc21 [Example 7, N-Ethyl-N-(4-pyridinyl)-1H-indol-1-amine-3-carboxaldehyde maleate] | 11.9 mg/kg |  |  | 
C=Cc1cn(N(C)c2ccncc2)c2ccccc12.O=C(O)/C=C\C(=O)O [Example 10, 3-Ethenyl-N-methyl-N-(4-pyridinyl)-1H-indol-1-amine maleate] |  | 1 mg/kg | 1 mg/kg | 
CCc1cn(N(C)c2ccncc2)c2ccccc12.Cl [Example 11, 3-Ethyl-N-methyl-N-(4-pyridinyl)-1H-indol-1-amine hydrochloride] |  | 1 mg/kg | 0.9 mg/kg | 
CN(c1ccncc1)n1ccc2cc([N+](=O)[O-])ccc21.O=C(O)/C=C\C(=O)O [Example 18, N-Methyl-5-nitro-N-(4-pyridinyl)-1H-indol-1-amine maleate] |  |  | 1 mg/kg | 
Cc1cn(Nc2ccncc2)c2ccccc12.O=C(O)C(=O)O [Example 19, 3-Methyl-N-(4-pyridinyl)-1H-indol-1-amine oxalate] |  | 0.7 mg/kg | 0.4 mg/kg | ED50 [1, 7]: 1 mg/kg
CCCN(c1ccncc1)n1cc(C)c2ccccc21.O=C(O)/C=C\C(=O)O [Example 20, 3-Methyl-N-propyl-N-(4-pyridinyl)-1H-indol-1-amine maleate] |  | 1.4 mg/kg | 4.1 mg/kg | % of Animals With Scopolamine Induced Memory Deficit Reversed ([2]; 0.31 mg/kg body weight): 27%; ED50 [1, 7]: 1.8 mg/kg
CCCN(c1ccncc1F)n1cc(C)c2ccccc21.Cl [Example 22, N-(3-Fluoro-4-pyridinyl)-N-propyl-3-methyl-1H-indol-1-amine hydrochloride] |  |  |  | % of Animals With Scopolamine Induced Memory Deficit Reversed ([2]; 0.31 mg/kg body weight): 33%
C=CCN(c1ccncc1)n1ccc2ccccc21.O=C(O)/C=C\C(=O)O [Example 23, N-(2-Propen-1-yl)-N-(4-pyridinyl)-1H-indol-1-amine maleate] |  | 3.8 mg/kg | 1.3 mg/kg | ED50 [1, 7]: 4.2 mg/kg
CC(C)=CCN1CCC2(C)c3cc(O)ccc3CC1C2C (stereo not shown) [Pentazocine, reference compound] |  |  |  | ED50 [3]: 3.9 mg/kg; ED50 [4]: 1.3 mg/kg
CNC(=O)Oc1ccc2c(c1)[C@]1(C)CCN(C)[C@@H]1N2C [Physostigmine, (3aS-cis)-1,2,3,3a,8,8a-hexahydro-1,3a,8-trimethyl-pyrrolo[2,3-b]indol-5-ol, methyl carbamate, reference compound] |  |  |  | % of Animals With Scopolamine Induced Memory Deficit Reversed ([2]; 0.31 mg/kg body weight): 20%
